Measurements published in US5776939A, “Drug resistance and multidrug resistance modulators” (Eli Lilly and Company, priority 1997, dated 1998).
pEC50: −log10 of the molar value.

Assays:
drug-resistant malaria = conditions: in vitro; cited from earlier work
p-glycoprotein = p-glycoprotein (Homo sapiens, UniProt P08183); conditions: for pEC50: cem/vlb100 cells, 72 h; for Rev100 (lowest concentration of modifier which can achieve 100% reversal activity): human, 4320 min
Protocol: When in vitro testing for multidrug resistance modulation with cancer chemotherapeutic drugs is conducted compounds are evaluated for their ability to show multidrug resistance modulation when coadministered with an oncolytic.
The cells can be maintained in SMEM medium supplemented with 10% FBS and 2 mM L-glutamine in a humidified incubator with 95% air and 5% C02. Cell number can be determined using a Coulter Counter model ZM. Cells can be subcultured every 3-4 days.
Cell viability can be determined using a modified MTT dye reduction method (Denziot, F., Lang, R., "Rapid colorimetric assay for cell growth and survival modifications to the tetrazolium procedure giving improved sensitivity and reliability", J. Immunological Methods, 89, 271-277, (1986)). A brief description of this method is as follows: cells are harvested during the logarithmic growth phase, and seeded in 96-well serocluster plates at 7.5×10^3 cells/well and cultured for 72 hours in the presence of serially diluted oncolytics (VLB, DOX, VP-16 and Taxol®)±modulators. A single well assay is conducted using a fixed concentration of VLB (4 ng/ml) and modulator (5μM). The cytotoxicity of the modulator alone, at the same concentration is also determined. Modulators are prepared as 2 mM stocks in DMSO and added to the wells to give final concentrations ranging from 5 pM to 0.5 WM. After 72 hours, 20 µl of freshly prepared MTT (5 mg/ml in Dulbecco's phosphate buffered saline pH 7.5) is added to each well and placed for 4 hours in a 37° C. incubator. Cells are pelleted at 1800 R.P.M. for 10 minutes in a Sorvall RT6000B centrifuge. After centrifugation, 70 μl of medium is carefully removed from each well, and 100 µl of 2- propanol/0.04 N HC1 is added to dissolve the blue formazan stained cells. Cells are resuspended 5-10 times with a multipipettor or until no particulate matter was visible. Plates are immediately read on a Yitertek MCC/340 microplate reader (Flow Laboratories (McLean, VA) with a wavelength of 570 nm and a reference wavelength of 630 nm). Controls are measured in quadruplicate and modulators in duplicate.
IC50 's are calculated from semilog dose response curves in the presence and absence of modulators for both the parent and resistant cell lines. The fold shift is calculated as the IC50 for cells treated with oncolytic alone divided by the IC50 for cells treated with oncolytic+modulator.

multidrug resistance = conditions: in vivo; cited from earlier work
[1] = in vivo; cited from earlier work

Sequence of p-glycoprotein (P08183 whole entry): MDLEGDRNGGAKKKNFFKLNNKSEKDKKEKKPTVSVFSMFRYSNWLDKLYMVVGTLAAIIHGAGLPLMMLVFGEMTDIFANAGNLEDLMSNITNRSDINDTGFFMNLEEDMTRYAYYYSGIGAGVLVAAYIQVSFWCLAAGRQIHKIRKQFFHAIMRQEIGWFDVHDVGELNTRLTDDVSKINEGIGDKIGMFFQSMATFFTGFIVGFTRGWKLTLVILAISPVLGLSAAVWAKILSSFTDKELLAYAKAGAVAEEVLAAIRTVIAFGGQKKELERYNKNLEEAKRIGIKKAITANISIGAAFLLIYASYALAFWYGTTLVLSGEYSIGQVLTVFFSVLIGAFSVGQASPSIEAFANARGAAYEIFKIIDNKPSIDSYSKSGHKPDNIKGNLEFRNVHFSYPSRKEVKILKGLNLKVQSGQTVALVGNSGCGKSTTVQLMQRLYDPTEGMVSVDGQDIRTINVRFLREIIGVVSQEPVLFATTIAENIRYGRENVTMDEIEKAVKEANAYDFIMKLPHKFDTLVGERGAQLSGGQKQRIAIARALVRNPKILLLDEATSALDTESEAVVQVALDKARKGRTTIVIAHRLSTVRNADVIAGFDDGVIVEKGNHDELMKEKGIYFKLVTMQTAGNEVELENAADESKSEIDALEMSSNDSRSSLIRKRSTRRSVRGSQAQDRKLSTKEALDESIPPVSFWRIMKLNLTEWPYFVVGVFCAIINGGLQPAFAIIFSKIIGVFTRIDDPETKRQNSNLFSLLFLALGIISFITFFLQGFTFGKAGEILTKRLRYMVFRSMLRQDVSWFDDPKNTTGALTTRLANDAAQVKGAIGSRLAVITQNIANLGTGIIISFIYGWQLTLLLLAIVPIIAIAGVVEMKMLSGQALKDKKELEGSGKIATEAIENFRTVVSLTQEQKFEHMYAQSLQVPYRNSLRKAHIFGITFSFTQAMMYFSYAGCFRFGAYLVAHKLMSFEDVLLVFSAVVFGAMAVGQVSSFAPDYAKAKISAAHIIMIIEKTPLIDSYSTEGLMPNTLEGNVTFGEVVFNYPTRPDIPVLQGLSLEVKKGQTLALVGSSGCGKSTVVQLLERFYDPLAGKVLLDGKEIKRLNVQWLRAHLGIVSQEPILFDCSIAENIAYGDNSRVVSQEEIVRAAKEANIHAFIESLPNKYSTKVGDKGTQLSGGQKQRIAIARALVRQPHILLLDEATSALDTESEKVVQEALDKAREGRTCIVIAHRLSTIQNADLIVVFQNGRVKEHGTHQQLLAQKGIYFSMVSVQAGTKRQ

SMILES	effect on drug-resistant malaria (drug-resistant malaria)	MDR Reversal Activity (p-glycoprotein)	pEC50 (p-glycoprotein)	Rev100 (lowest concentration of modifier which can achieve 100% reversal activity) (p-glycoprotein) [µM]	dose required to be effective as a multidrug resistance modulator (multidrug resistance)	oral bioavailability [1]
COc1ccc(CCN(C)CCCC(C#N)(c2ccc(OC)c(OC)c2)C(C)C)cc1OC (stereo not drawn) [verapamil]	effective					
O[C@@H](CSc1cccc2ncccc12)CN1CCN([C@@H]2c3ccccc3[C@@H]3[C@H](c4ccccc42)C3(F)F)CC1 [Example 2b, anti-5-{l-(4-(10,11-difluorocyclopropyldi-benzosuber-5-yl)piperazin-1-yl)-2(R)-hydroxyprop-3-ylthio}quinoline·3HC1]		potent	6.60	0.50		
OC(CCc1cccc2ncccc12)CN1CCN([C@@H]2c3ccccc3[C@@H]3[C@H](c4ccccc42)C3(F)F)CC1 (stereo partly drawn) [Example 1e, anti-5-{1-(4-(10,11-difluorocyclopropyldibenzosuber-5-yl)piperazin-1-yl)-2(R,S)-hydroxybut-4-yl}quinoline·3HC1]		potent	6.00	> 1.0		
O=C(C(c1ccccc1)c1ccccc1)N1CCN(CC(O)COc2cccc3ncccc23)CC1 (stereo not drawn) [MS-209]					higher doses	better
